In this test the target is T1, glutathione S-transferase (GST)-linked full-length human Syk protein (Homo sapiens, UniProt P43405).
T1 construct: glutathione S-transferase (GST)-linked full-length human Syk protein; purchased Carna Biosciences; host or cells: Baculovirus expression system
Description: Syk enzyme assay. The format is biochemical. The settings on record: 0.83 nM Syk, time-resolved fluorescence; read-out: IC50 of Syk-inhibitory activity. The gist of the method: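 Phosphotyrosine on a biotin-peptide substrate (0.5 μM) was read by time-resolved fluorescence at 615 and 665 nm with Eu-anti-pTyr antibody and APC-streptavidin after 1 h EDTA stop.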
With `CC[C@H](N)[C@H](Nc1nc(Nc2ccnc(OCCOC)c2)c(C(N)=O)cc1F)C1CC1` [Example 2-360, 6-(((1R,2S)-2-amino-1-cyclopropylbutyl)amino)-5-fluoro-2-((2-(2-methoxyethoxy)pyridin-4-yl)amino)nicotinamide], the IC50 is 10 to 50 nM. With `CC(C)C[C@H](CN)Nc1nc(Nc2cnc3c(c2)c(N(C)C)nn3C)c(C(N)=O)cc1F` [Example 2-287, (R)-6-((1-amino-4-methylpentan-2-yl)amino)-2-((3-(dimethylamino)-1-methyl-1H-pyrazolo[3,4-b]pyridin-5-yl)amino)-5-fluoronicotinamide], the IC50 lay in the range of 10 to 50 nM. As to `C[C@H](N)[C@H](Nc1nc(Nc2cnc(N3CCOCC3)c(F)c2)c(C(N)=O)cc1F)c1ccccc1` [Example 2-314, 6-(((1R,2S)-2-amino-1-phenylpropyl)amino)-5-fluoro-2-((5-fluoro-6-morpholinopyridin-3-yl)amino)nicotinamide], the IC50 is below 10 nM.

Turning to `C[C@H](N)[C@H](Nc1nc(Nc2ccc3c(c2)c(N2CCCC2)nn3C)c(C(N)=O)cc1F)C1CC1` [Example 2-430, 6-(((1R,2S)-2-amino-1-cyclopropylpropyl)amino)-5-fluoro-2-((1-methyl-3-(pyrrolidin-1-yl)-1H-indazol-5-yl)amino)nicotinamide], the 50% inhibitory concentration (IC50) lay in the range of 10 to 50 nM. Turning to `CCn1ncc2c(Nc3nc(N[C@H](c4ccccc4F)[C@H](C)N)c(F)cc3C(N)=O)cccc21` [Example 2-514, 6-(((1R,2S)-2-amino-1-(2-fluorophenyl)propyl)amino)-2-((1-ethyhl-1H-indazol-4-yl)amino)-5-fluoronicotinamide], the IC50 was below 10 nM. With `CC[C@H](N)[C@@H](C)Nc1nc(Nc2cnc(C)c(C)c2)c(C(N)=O)cc1F` [Example 2-35, 6-(((2R,3S)-3-aminopentan-2-yl)amino)-2-((5,6-dimethylpyridin-3-yl)amino)-5-fluoronicotinamide], the IC50 fell in the range of 10 to 50 nM.

Consider `CCCC[C@@H](Nc1nc(Nc2cncc3c2cnn3CCOC)c(C(N)=O)cc1F)[C@H](C)N` [Example 2-389, 6-(((2S,3R)-2-aminoheptan-3-yl)amino)-5-fluoro-2-((1-(2-methoxyethyl)-1H-pyrazolo[3,4-c]pyridin-4-yl)amino)nicotinamide], for which the IC50 was in the range of 10 to 50 nM. As to `Cc1cnn(-c2cncc(Nc3nc(N[C@@H]4CCOC[C@@H]4N)c(F)cc3C(N)=O)c2)c1` [Example 2-526, 6-(((3R,4R)-3-aminotetrahydro-2H-pyran-4-yl)amino)-5-fluoro-2-((5-(4-methyl-1H-pyrazol-1-yl)pyridin-3-yl)amino)nicotinamide], the IC50 is below 10 nM. Take `Cc1ncc(Nc2nc(N[C@@H](CN)Cn3cccn3)c(F)cc2C(N)=O)cc1F` [Example 2-469, (S)-6-((1-amino-3-(1H-pyrazol-1-yl)propan-2-yl)amino)-5-fluoro-2-((5-fluoro-6-methylpyridin-3-yl)amino)nicotinamide]: the IC50 fell in the range of 10 to 50 nM. As for `COCCn1ncc2c(Nc3nc(N[C@H](C4CCC4)[C@H](C)N)c(F)cc3C(N)=O)cncc21` [Example 2-391, 6-(((1R,2S)-2-amino-1-cyclobutylpropyl)amino)-5-fluoro-2-((1-(2-methoxyethyl)-1H-pyrazolo[3,4-c]pyridin-4-yl)amino)nicotinamide], the half-inhibitory concentration (IC50) is below 10 nM.

For the compound `C[C@H](N)[C@H](Nc1nc(Nc2ccc3c(c2)c(OC(F)F)nn3C)c(C(N)=O)cc1F)C1CCC1` [Example 2-350, 6-(((1R,2S)-2-amino-1-cyclobutylpropyl)amino)-2-((3-(difluoromethoxy)-1-methyl-1H-indazol-5-yl)amino)-5-fluoronicotinamide], the IC50 was below 10 nM. Consider `Cc1ncc(Nc2nc(NC3[C@@H](OCc4ccccc4)CCC[C@@H]3N)c(F)cc2C(N)=O)cc1-n1nccn1` (mixture of isomers) [Example 2-484, Mixture of 6-((2-amino-6-(benzyloxy)cyclohexyl)amino)-5-fluoro-2-((6-methyl-5-(2H-1,2,3-triazol-2-yl)pyridin-3-yl)amino)nicotinamide (1S,2S,6S),(1R,2R,6R)], for which the IC50 was in the range of 10 to 50 nM. With `Cc1nn(-c2cncc(Nc3nc(N[C@H]4CCCC[C@H]4N)c(F)cc3C(N)=O)c2)nc1C` (stereo in doubt) [Example 2-533, 6-(((1S,2R)-2-aminocyclohexyl)amino)-2-((5-(4,5-dimethyl-2H-1,2,3-triazol-2-yl)pyridin-3-yl)amino)-5-fluoronicotinamide] the figure was 50 to 100 nM. As to `CC[C@H](N)[C@@H](C)Nc1nc(Nc2ccc3c(c2)c(OC(F)F)nn3CCOC)c(C(N)=O)cc1F` [Example 2-544, 6-(((2R,3S)-3-aminopentan-2-yl)amino)-2-((3-(difluoromethoxy)-1-(2-methoxyethyl)-1H-indazol-5-yl)amino)-5-fluoronicotinamide], the IC50 was in the range of 10 to 50 nM. `CCC[C@@H](Nc1nc(Nc2ccc3c(c2)c(N(C)C)nn3CCOC)c(C(N)=O)cc1F)[C@H](C)N` [Example 2-503, 6-(((2S,3R)-2-aminohexan-3-yl)amino)-2-((3-(dimethylamino)-1-(2-methoxyethyl)-1H-indazol-5-yl)amino)-5-fluoronicotinamide]: the IC50 is 10 to 50 nM. For the compound `COCCn1ncc2c(Nc3nc(N[C@H](CC(C)C)[C@H](C)N)c(F)cc3C(N)=O)cncc21` [Example 2-390, 6-(((2S,3R)-2-amino-5-methylhexan-3-yl)amino)-5-fluoro-2-((1-(2-methoxyethyl)-1H-pyrazolo[3,4-c]pyridin-4-yl)amino)nicotinamide], the IC50 was below 10 nM. As to `CN(C)c1nn(C)c2ccc(Nc3nc(N[C@@H](CN)Cc4ccccc4)c(F)cc3C(N)=O)cc12` [Example 2-421, (R)-6-((1-amino-3-phenylpropan-2-yl)amino)-2-((3-(dimethylamino)-1-methyl-1H-indazol-5-yl)amino)-5-fluoronicotinamide], the IC50 lay in the range of 10 to 50 nM. For `Cc1ncc(Nc2nc(N[C@H](c3ccc(F)c(F)c3)[C@H](C)N)c(F)cc2C(N)=O)cc1-n1nccn1` [Example 2-552, 6-(((1R,2S)-2-amino-1-(3,4-difluorophenyl)propyl)amino)-5-fluoro-2-((6-methyl-5-(2H-1,2,3-triazol-2-yl)pyridin-3-yl)amino)nicotinamide], the IC50 is below 10 nM.

On to `Cn1nc(N2CCCC2=O)c2cc(Nc3nc(N[C@@H]4CCCC[C@@H]4N)c(F)cc3C(N)=O)ccc21` [Example 2-431, 6-(((1R,2S)-2-aminocyclohexyl)amino)-5-fluoro-2-((1-methyl-3-(2-oxopyrrolidin-1-yl)-1H-indazol-5-yl)amino)nicotinamide], for which the IC50 was in the range of 10 to 50 nM. In the case of `C[C@H](N)[C@H](Nc1nc(Nc2ccc(F)c(F)c2)c(C(N)=O)cc1F)C1CCC1` [Example 2-61, 6-(((1R,2S)-2-amino-1-cyclobutylpropyl)amino)-2-((3,4-difluorophenyl)amino)-5-fluoronicotinamide], the IC50 lay within 10 to 50 nM. For `Cc1nn(C)c2ncc(Nc3nc(N[C@H](CC(C)C)[C@H](C)N)c(F)cc3C(N)=O)cc12` [Example 2-245, 6-(((2S,3R)-2-amino-5-methylhexan-3-yl)amino)-2-((1,3-dimethyl-1H-pyrazolo[3,4-b]pyridin-5-yl)amino)-5-fluoronicotinamide], the IC50 is below 10 nM.

For `COCCn1ncc2c(Nc3nc(N[C@H](C4CC4)[C@H](C)N)c(F)cc3C(N)=O)cncc21` [Example 2-388, 6-(((1R,2S)-2-amino-1-cyclopropylpropyl)amino)-5-fluoro-2-((1-(2-methoxyethyl)-1H-pyrazolo[3,4-c]pyridin-4-yl)amino)nicotinamide], the concentration for half-maximal inhibition (IC50) was below 10 nM.

As to `COc1ccc([C@@H](Nc2nc(Nc3cnc(OC)c(-n4ccnn4)c3)c(C(N)=O)cc2F)[C@H](C)N)cc1` [Example 2-339, 6-(((1R,2S)-2-amino-1-(4-methoxyphenyl)propyl)amino)-5-fluoro-2-((6-methoxy-5-(1H-1,2,3-triazol-1-yl)pyridin-3-yl)amino)nicotinamide], the IC50 was in the range of 50 to 100 nM. Next, `Cc1ncc(Nc2nc(N[C@@H](CN)Cc3ccccc3)c(F)cc2C(N)=O)cc1-n1nccn1` [Example 2-364, (R)-6-((1-amino-3-phenylpropan-2-yl)amino)-5-fluoro-2-((6-methyl-5-(2H-1,2,3-triazol-2-yl)pyridin-3-yl)amino)nicotinamide]: 50 to 100 nM; `CC(C)C[C@H](CN)Nc1nc(Nc2cncc3c2cnn3CC(F)F)c(C(N)=O)cc1F` [Example 2-395, (R)-6-((1-amino-4-methylpentan-2-yl)amino)-2-((1-(2,2-difluoroethyl)-1H-pyrazolo[3,4-c]pyridin-4-yl)amino)-5-fluoronicotinamide]: below 10 nM. Regarding `COc1nn(C)c2c(F)cc(Nc3nc(N[C@H](CC(C)C)[C@H](C)N)c(F)cc3C(N)=O)cc12` [Example 2-156, 6-(((2S,3R)-2-amino-5-methylhexan-3-yl)amino)-5-fluoro-2-((7-fluoro-3-methoxy-1-methyl-1H-indazol-5-yl)amino)nicotinamide], the IC50 was below 10 nM.

Consider `CC[C@H](N)[C@H](Nc1nc(Nc2cc(F)c3c(c2)c(N(C)C)nn3C)c(C(N)=O)cc1F)C1CC1` [Example 2-383, 6-(((1R,2S)-2-amino-1-cyclopropylbutyl)amino)-2-((3-(dimethylamino)-7-fluoro-1-methyl-1H-indazol-5-yl)amino)-5-fluoronicotinamide], for which the IC50 is below 10 nM.

`CC(C)C[C@@H](Nc1nc(Nc2ccc3nn(C)c(N(C)C)c3c2)c(C(N)=O)cc1F)[C@H](C)N` [Example 2-15, 6-(((2S,3R)-2-amino-5-methylhexan-3-yl)amino)-2-((3-(dimethylamino)-2-methyl-2H-indazol-5-yl)amino)-5-fluoronicotinamide]: the IC50 is below 10 nM.

For the origin of these results see patent US9051310B2, “Nicotinamide derivative or salt thereof” (FUJIFILM Corporation, priority 2011, dated 2015).
